# Laboratory results reported in publication PMC11157491, “Novel Alaninamide Derivatives with Drug-like Potential for Development as Antiseizure and Antinociceptive Therapies—In Vitro and In Vivo Characterization” (ACS Chemical Neuroscience, 2024).
# What was measured:
# [1] = system: human liver microsomes (HLMs); assay: Metabolic stability in human liver microsomes; assay type: in vitro ADME
# From the text: Molecular mass Molecular mass of the
# Substrate (m/z) metabolite (m/z) Metabolic pathway
# * Reference unstable drug; metabolic stability determined using the same procedure published previously
# [2] = system: GABAA transporter; assay: GABA transporter binding (antagonist radioligand); settings: 100 μM, rat cerebral cortex
# Experimental: Binding/functional studies were carried out commercially in Eurofins Laboratories (Poitiers, France) and Eurofins Panlabs Discovery Services Taiwan, Ltd. (New Taipei City, Taiwan) using testing procedures that were reported previously (for details, see Table S2).
# Table S2. Radioligand binding and functional assays. […]
# GABA transporter (antagonist radioligand) […]
# Potassium channel (hERG) […]
# Assays were performed commercially in Eurofins Laboratories ( Poitiers, France) or Eurofins Panlabs Discovery Services
# Taiwan, Ltd. (New Taipei City, Taiwan).
# [3] = system: mice; assay: Streptozotocin (STZ)-induced peripheral neuropathy, von Frey test; assay type: in vivo; settings: 21 days after STZ
# Experimental: In the first group, the initial value of 6.08 ± 0.29 (baseline) decreased to the value of 4.30 ± 0.21 (70.7% of the baseline). […] In the second group, the initial value of 6.08 ± 0.29 (baseline) decreased to the value of 5.02 ± 0.27 (82.6% of the baseline). The administration of 28 at a dose of 25 mg/kg elevated the pain threshold to the value of 7.69 ± 0.41, which corresponds with 126.5% of the baseline. In the third group, the baseline was decreased to the value of 5.35 ± 0.27 (88.0% of the baseline). The effect was not statistically significant. The administration of 28 at a dose of 50 mg/kg elevated the pain threshold to a value as high as 8.70 ± 0.41, which corresponds with 143.1% of the baseline.
# The experimental groups consisted of 10 adult male Albino Swiss mice (CD-1, 18–25 g). Each animal was tested only once. Immediately after the assay, the animals were sacrificed by cervical dislocation. Behavioral measurements were observed by trained observers. The in vivo antinociceptive assays were in accordance with Polish regulations and the European Union Directive of 22 Sept 2010 (2010/63/EU). All procedures were carried out according to the rules of the International Council on Laboratory Animal Science (ICLAS) and were approved by the Local Ethics Committee in Cracow, Poland (104/2015, 279/2019, and 614/2022). The tested substances were suspended in a 1% aqueous solution of Tween 80 and were injected i.p. 30 min prior to the test. Control group animals (negative control) were administered with an appropriate amount of vehicle (Tween 80, 1% aqueous solution, i.p.) 30 min prior to the test. […] Before formalin application, different groups of animals were injected i.p. with vehicle (10 mL/kg, negative control). The in vivo procedure for the model of capsaicin-induced nociception was previously reported;[67] the animals were pretreated with vehicle (10 mL/kg, negative control), and the dose–response of investigated compounds was evaluated at 12.5, 25, and 50 mg/kg.
# Data are presented as means ± standard error of the mean (SEM). GraphPad Prism Software (v.5) was used to analyze the vast majority of data. Statistically significant differences between groups were calculated using one-way analysis of variance (ANOVA) and the post hoc Dunnett’s multiple comparison test or two-way analysis of variance (ANOVA). The criterion for significance was set at p < 0.05. The log-probit method was applied to statistically determine the ED50 values with 95% confidence limits.
Structure (SMILES),number of metabolites found after incubation with HLMs [1],metabolic pathway of metabolite M1 ([1]; MS supported by MetaSite),metabolic pathway of metabolite M2 ([1]; MS supported by MetaSite),% inhibition of control specific binding [2] [%],metabolic pathway of metabolite M3 ([1]; MS supported by MetaSite),"pain threshold after compound, % of the baseline ([3]; 12.5 mg/kg) [%]",pain threshold (von Frey) after compound ([3]; 25 mg/kg),"pain threshold after compound, % of the baseline ([3]; 25 mg/kg) [%]",pain threshold (von Frey) after compound ([3]; 50 mg/kg),"pain threshold after compound, % of the baseline ([3]; 50 mg/kg) [%]"
"CC(=O)NC(C)C(=O)N1CCN(c2cccc(C(F)(F)F)c2)CC1 (stereo not shown) [Compound 26, N-(1-oxo-1-(4-(3-(Trifluoromethyl)phenyl)piperazin-1-yl)propan-2-yl)acetamide]",two,dehydrogenation and oxidation,dehydrogenation and oxidation,–,–,–,–,–,–,–
"CC(=O)NC(C)C(=O)N1CCN(c2cccc(OC(F)(F)F)c2)CC1 (stereo not shown) [Compound 28, N-(1-oxo-1-(4-(3-(Trifluoromethoxy)phenyl)piperazin-1-yl)propan-2-yl)acetamide]",three,double dehydrogenation,hydroxylation,15.0,double dehydrogenation,100.0,7.69 ± 0.41,126.5,8.70 ± 0.41,143.1
